For data set [1] the following is noted: deemed target-related; cited from earlier work.
Data set [2] relates to ALK5 (TβRI). As to conditions: cited from earlier work.
Data set [3] relates to off-target kinases. The settings on record: cited from earlier work.
In data set [4] the test system is p38MAPK. As to conditions: cited from earlier work.
Data set [5] deals with activin receptor ALK4. As to conditions: cited from earlier work.
For data set [6], the system named is CK1δ. The settings on record: cited from earlier work.
Data set [7] deals with RIPK2. The settings on record: cited from earlier work.
Data set [8] deals with activin receptor ALK7. As to conditions: cited from earlier work.
The target in data set [9] is T1, TGF-β1 (Homo sapiens, UniProt P01137). The settings on record: cited from earlier work.
T1 sequence (P01137 279-390 limits assumed, species assumed): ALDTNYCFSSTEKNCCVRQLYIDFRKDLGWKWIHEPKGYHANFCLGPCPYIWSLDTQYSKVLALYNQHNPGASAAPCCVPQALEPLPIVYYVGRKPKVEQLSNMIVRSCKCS
In data set [10] the target is T1, TGF-β1. The settings on record: cited from earlier work. The source holds these as a separate data set.
In data set [11] the target is T1, TGF-β1. Nature of the data set: surface plasmon resonance. The settings on record: for kon: read-out: association rate constant ka; for koff: read-out: dissociation rate constant kd. Type of data set: binding. (Surface plasmon resonance follows binding to a sensor surface in real time, without labels.)
Data set [12] relates to mouse T-lymphocyte HT-2 cells. Nature of the data set: HT-2 T-lymphocyte proliferation assay. The data set is classed as cell-based.
The subject of data set [13] is human umbilical vein endothelial cells (HUVECs). Nature of the data set: HUVEC proliferation assay. The data set is classed as cell-based. The settings on record: HUVEC (Fig. S5).
Data set [14] deals with mouse T-lymphocyte HT-2 cells. As to conditions: cited from earlier work.

No end group written: not given here.

Take `Cc1cccc(-c2nn3c(c2-c2ccnc4ccc(C(N)=O)cc24)CCC3)n1` [Galunisertib]: the “cardiac toxicity in preclinical development” value in data set [1] was “cardiac toxicities identified during preclinical development”. Also, the “inhibition of TβRI by galunisertib” value in data set [2] is given as “small molecule inhibitor of TβRI”. Besides, the “activity against off-target kinases” value in data set [3] was “strong activity against off-target kinases”.
On to `NC(=O)c1ccc(-c2nc(-c3ccc4c(c3)OCO4)c(-c3ccccn3)[nH]2)cc1` [SB-431542], for which the “activity against p38MAPK” value in data set [4] is reported as “activity”. The “inhibition of ALK5 (TβRI)” value in [2] was “small molecule inhibitor of ALK5 (TβRI)”. In addition, in [5], the “activity against ALK4” value was “activity against activin receptors ALK4”. Further, in data set [6], the “activity against CK1δ” value is given as “activity”. The “activity against RIPK2” value in [7] was “activity”. Besides, the “activity against ALK7” value in data set [8] is “activity against activin receptors ALK4 and ALK7”.
`CCCCc1nc(Cl)c(CO)n1Cc1ccc(-c2ccccc2-c2nn[nH]n2)cc1` [losartan, reference compound]: the “direct binding to TGF-β1 or its receptors” value (“direct binding” for short) in [9] was “do not directly bind TGF-β1 or its receptors”. Also, in [10], the “activity against TGF-β1, preclinical anti-fibrotic” value is recorded as “activity against TGF-β1”.
On to `Cc1ccc(C(=O)Nc2ccc(S(=O)(=O)O)c3cc(S(=O)(=O)O)cc(S(=O)(=O)O)c23)cc1NC(=O)c1cccc(NC(=O)Nc2cccc(C(=O)Nc3cc(C(=O)Nc4ccc(S(=O)(=O)O)c5cc(S(=O)(=O)O)cc(S(=O)(=O)O)c45)ccc3C)c2)c1` [suramin, reference compound], for which the “direct binding” value in data set [9] is on record as “do not directly bind TGF-β1 or its receptors”. Also, in data set [10], the “activity against TGF-β1, preclinical anti-fibrotic” value was “activity against TGF-β1”.
In the case of CIAEIDLIPRDRPF [RIPΔ], in [11], the kon came to 192000 M⁻¹ s⁻¹ and the koff worked out at 0.0199 s⁻¹.
For the compound CIAEIDLIPRDRPFV [RIP], in data set [11], the kon is 140000 M⁻¹ s⁻¹ and the koff was determined as 0.00836 s⁻¹.
Turning to CLIDFRIPADREVPI [Scrambled RIP], in data set [11], the kon turned out to be 68500 M⁻¹ s⁻¹ and the koff is 0.0352 s⁻¹.
Take CPQLGKFGDVRF [RIIP-1]: the “effect on HT-2 proliferation (fluorescence) vs own scrambled control” value in data set [12] (10 μM soluble peptide, 0.1 ng/mL TGF-β1 (Fig. 2b)) is “not statistically different between RIIP-1 and its scrambled control”.
Regarding “TGF-β1: most abundant TGF-β isoform in adult tissues and platelets”, in data set [13], the “TGF-β1 concentration of highest inhibition of HUVEC proliferation” value is listed as 41 pg/mL, the “TGF-β1 concentration of highest inhibition of HUVEC proliferation (molar)” value turned out to be 3.2 pM and the “TGF-β1 concentration range suppressing HUVEC proliferation” value was 10 to 1000 ng/mL. In addition, the “IC50 of TGF-β1 in the HT-2 proliferation assay” value in data set [12] (IL-4 dependent proliferation, fluorescence-based cell viability assay) worked out at 0.05 ng/mL. For the same compound, the IC50 in data set [12] (read-out: IC50 of TGF-β1 in the HT-2 proliferation assay (molar), IL-4 dependent proliferation, fluorescence-based cell viability assay) is 3.9 pM. The “inhibition of IL-4 dependent HT-2 proliferation by TGF-β1” value in data set [12] (soluble TGF-β1, fluorescence-based cell viability assay (Fig. 2a)) is “inhibited IL-4 dependent proliferation in a dose dependent manner”. For the same compound, in data set [14], the “published IC50 value of TGF-β1 in HT-2 assay” value is 0.04 to 0.2 ng/mL.
With relaxin, in data set [9], the “direct binding” value was “do not directly bind TGF-β1 or its receptors”. The “activity against TGF-β1, preclinical anti-fibrotic” value in data set [10] was “activity against TGF-β1”.

(Values after PMC9254699 (Biomaterials science, 2021).)
